In general, EC50 refers to the concentration giving half of the maximal effect. The inhibition is the drop in the measured response relative to a control, in per cent.

Data on 3 compounds can be found in paper PMC12846378 (Viruses, 2026).

“And” between values parts separate entries of the source, which are not always exact repeats. Equal values may be shown once. Read-outs that look alike come from different tables or passages of the source. Some results are limits rather than exact numbers.

The test system of data set [1] is rLCMV/GFP-P2A-NP. Format: cell-based.
Data set [2] has as its system rLCMV/GFP-P2A-NP. Format: cell-based. This is another data set of the same source.
The test system of data set [3] is rJUNV/GFP-P2A-NP. Kind of data set: organism not typed. Format: cell-based.
Data set [4] has as its system rJUNV/GFP-P2A-NP. Put plainly: organism not typed. Format: cell-based. This is another data set of the same source.
Data set [5] deals with rLCMV/GFP-P2A-NP. Format: cell-based. The source holds these as a separate data set.
A further data set deals with LCMV vRNP (Mammarenavirus choriomeningitidis (LCMV), UniProt P14240). Format: cell-based.
For the next data set, the system named is LASV vRNP. Format: cell-based.
The next data set has as its system LCMV Z. Format: cell-based.
A further data set deals with LCMV NP RNA. Format: cell-based.
The subject of data set [6] is A549 cells.
Data set [7] relates to A549 cells. This is another data set of the same source.
In data set [8] the test system is A549 cells. This is another data set of the same source.
For data set [9], the system named is HEK293T cells.
Data set [10] concerns HEK293T cells. The source holds these as a separate data set.
Data set [11] deals with rLCMV/GFP-P2A-NP. Format: cell-based. The source holds these as a separate data set.
The subject of data set [12] is rLCMV/GFP-P2A-NP. Kind of data set: organism not typed. Format: cell-based.
For another data set, the system named is ISG15. Format: cell-based.
A further data set has as its system MX1. Format: cell-based.
A further data set is described as follows: in vitro. The following applies: African green monkey.

With `CNC1=Nc2ccc(Cl)cc2C(c2ccc[nH]2)=NC1` [RO, Ro-24-7429], in the data set on rLCMV/GFP-P2A-NP [1], the “reduction in infectivity (GFP signal)” value is reported as no less than 80%. The half-maximal effective concentration (EC50) is 889 nM and 890 nM in the data set with rLCMV/GFP-P2A-NP [2] (read-out: EC50); 15300 nM in the data set with rJUNV/GFP-P2A-NP [3] (read-out: EC50). Also, the “antiviral activity against JUNV” value in the data set with rJUNV/GFP-P2A-NP [3] and with rJUNV/GFP-P2A-NP [4] was “less efficient” each time. Further, the “production of infectious virus (titers in CCS)” value with rLCMV/GFP-P2A-NP [5] was “reduced efficacy at 1 µM compared to 5 µM”. The “inhibition of LCMV MG activity” value against LCMV vRNP was “significantly less efficient”. The “inhibition of LASV MG activity” value with LASV vRNP was “significantly less efficient”. Further, the “effect on Z budding activity” value with LCMV Z is reported as “did not affect”. In the data set on LCMV NP RNA, the “effect on virus RNA replication and transcription” value was “inhibited to a similar degree both virus replication and transcription”. In addition, in the data set on A549 cells [6], the “reduction in cell viability / cytotoxicity” value is no more than 20%. In addition, the CC50 was greater than 20000 nM in the data set with A549 cells [7]; greater than 30000 nM in the data set with Vero E6 cells; greater than 30000 nM with A549 cells [8]; greater than 20000 nM with HEK293T cells [9]; greater than 1000 nM in the data set on HEK293T cells [10].

For the compound `O=C(/C=C\n1cnc(-c2cc(C(F)(F)F)cc(C(F)(F)F)c2)n1)NNc1cnccn1` [SE, Selinexor], the “production of infectious virus (titers in CCS)” value in the data set with rLCMV/GFP-P2A-NP [5] is on record as “potent inhibitory effect on LCMV multiplication”.

As for `O=C(/C=C\n1cnc(-c2cc(C(F)(F)F)cc(C(F)(F)F)c2)n1)NNc1ccccn1` [VE, verdinexor], the “reduction in infectivity (GFP signal)” value in the data set on rLCMV/GFP-P2A-NP [1] is no less than 80%. Further, the EC50 stood at 70 nM with rLCMV/GFP-P2A-NP [2], 240 nM in the data set with rJUNV/GFP-P2A-NP [3], 239 nM with rJUNV/GFP-P2A-NP [3] (Vero C1008) and 36 nM in the data set on rJUNV/GFP-P2A-NP [4] (A549). The “antiviral activity against JUNV” value with rJUNV/GFP-P2A-NP [3] and in the data set with rJUNV/GFP-P2A-NP [4] was “potent antiviral activity” throughout. Moreover, the “reduction in virus peak titers” value in the data set on rLCMV/GFP-P2A-NP [5] is on record as roughly 2 log. In addition, the “inhibition of LCMV MG activity” value against LCMV vRNP is on record as “potently inhibited”. Besides, the “inhibition of LASV MG activity” value in the data set with LASV vRNP is “potently inhibited”. The “effect on Z budding activity” value in the data set with LCMV Z is “significant inhibitory effect”. Further, the “effect on LCMV multiplication in MAVS-KO A549 cells” value in the data set with rLCMV/GFP-P2A-NP [11] was “strong dose-dependent inhibitory effect”. This compound also returned an inhibition at 0.3334 µM with rLCMV/GFP-P2A-NP [12] of 77.6%. This compound also displayed an inhibition at 1 µM in the data set on rLCMV/GFP-P2A-NP [12] of 97.05 ± 0.41%. Moreover, the “expression level of ISG15” value in the data set with ISG15 was “reduced expression levels”. The “expression level of MX1” value in the data set on MX1 is reported as “reduced expression levels”. For the same compound, the “effect on virus RNA replication and transcription” value with LCMV NP RNA is “inhibited to a similar degree both virus replication and transcription”. Moreover, in the data set on A549 cells [6] (human), the “reduction in cell viability / cytotoxicity” value is recorded as no more than 20%. Besides, in “in vitro”, the CC50 was greater than 30000 nM.
